Data set [1] can be described thus: HPLC retention time (measure of peptide hydrophobicity). In kind it is physicochemical. The settings on record: chromatographic, Waters C8 symmetry hydrophobic column, as described in ref 34; used as indicator of peptide hydrophobicity. The text has this:
In the membrane-bound LL-37 structure determined by 3D NMR spectroscopy, a hydrophobic gap exists (Figure 1A). The location of a hydrophilic S9 on the hydrophobic surface of LL-37 splits the long helix into two hydrophobic domains (gold sticks). The SK-24 peptide we identified here corresponds to the long hydrophobic domain [26]. The amino acid sequence of SK-24, along with LL-37 and its derived antimicrobial peptides, is depicted in Figure 1B. Peptide parameters, including net charge, hydrophobic content, Boman index, GRAVY, hydrophobicity, and hydrophobic moment of each peptide, were calculated using online tools, such as the APD [8] and HeliQuest (Table 1). Except for the shortest RI-10 (net charge +3), LL-37 and its other derived peptides have net charges +5 or +6, above the average net charge (+3.3) of natural antimicrobial peptides registered in the APD [8, 35, 36]. Overall, the hydrophobic percentages (Pho) of these peptides calculated in the APD are proportional to the hydrophobicity and hydrophobic moment calculated by HeliQuest in Table 1. Of note, LL-37 has the highest net charge (+6) and Boman index but the lowest Pho%, GRAVY, and hydrophobic moment.
All peptides were chemically synthesized and purified to >95% (Genemed Synthesis, San Antonio, TX, USA). The quality of each peptide was determined based on mass spectrometry (MS) and high-performance liquid chromatography (HPLC). Peptide stock solutions were freshly made by solubilizing in autoclaved distilled water, and their concentrations were quantitated using UV spectroscopy based on the absorbance difference at 215 and 225 nm as described. Peptide retention time was measured on a Waters C8 symmetry hydrophobic column as described. Other chemicals were purchased from Sigma (St. Louis, MO, USA) unless specified.

The next data set deals with E. coli E423-17. The data set is classed as cell-based, Escherichia coli. How it is done:
(§1) The antibiotic-resistant pathogens used in this study include the Gram-positive bacteria Enterococcus faecium V286-17 and Staphylococcus aureus USA300 LAC and the Gram-negative bacteria Klebsiella pneumoniae E406-17, Acinetobacter baumannii B28-16, Pseudomonas aeruginosa E411-17, and Escherichia coli E423-17. All bacteria were cultivated in tryptic soy broth (TSB) at 37 °C, 220 rpm.
(§2) The antibacterial activity of peptides was evaluated using a standard broth microdilution protocol with minor modifications. In brief, peptides were made at various concentrations, 10 μL per well in a 96-well polystyrene microplate. Logarithmic phase bacterial cultures (i.e., optical density (OD) at 600 nm ≈ 0.5) were diluted to 0.001 OD, and aliquots of 90 μL were added to each well. Untreated bacterial culture and medium were included as positive and negative controls, respectively. Plates were incubated at 37 °C overnight and read at 630 nm using a ChroMate Microplate Reader (Awareness Technology, Palm City, FL, USA). […] Our previously designed peptide 17BIPHE2 [32] was included as a positive control, and RI-10, a peptide without antibacterial activity in rich media, was utilized as a negative control.

A further data set has as its system P. aeruginosa E411-17. The data set is classed as cell-based, Pseudomonas aeruginosa. The settings on record: E411-17. How it is done: as §1, §2
Data set [2] has as its system A. baumannii B28-16 preformed biofilms. In words: Disruption of preformed biofilms (XTT). In kind it is cell-based, Acinetobacter baumannii. The method, then:
The antibiofilm activities of peptides against the preformed biofilms of A. baumannii B28-16 and S. aureus USA300 LAC were evaluated as follows. Bacteria in the logarithmic growth phase were adjusted to a cell density of 10^5 colony forming unit (CFU)/mL. Two hundred microliter cells were seeded into each well of the 96-well plates. The plates were incubated at 37 °C to allow for the formation of biofilm for 24, 48, and 72 h, respectively. The planktonic cells were then removed, followed by a wash. The biofilms were then treated with 20 µL of 10× two-fold diluted peptides and 180 µL of fresh TSB media for 24 h at 37 °C. Cultures treated with water without peptide served as the positive control, and media treated with water was used as the negative control. To quantify the antibiofilm activity of the peptides, the XTT [2, 3-bis (2-methyloxy-4-nitro-5-sulfophenyl)-2H-tertazolium-5-carboxanilide] assay staining method was used to quantitate the live cells. Absorbance was read at 450 nm using a ChroMate microliter plate reader. The percentage biofilm growth for the peptide was plotted by assuming 100% biofilm growth in untreated bacterial control wells. Data were represented as mean ± standard deviation (SD). The data are statistically significant at p < 0.05. Plots were generated using GraphPad Prism v7 (GraphPad Software, San Diego, CA, USA).

Here are results for 1 compound from article PMC8703873, “Structure and Activity of a Selective Antibiofilm Peptide SK-24 Derived from the NMR Structure of Human Cathelicidin LL-37” (Pharmaceuticals, 2021).

Converted amounts (≈) assume the structure as drawn. Non-standard residues stand in square brackets, D forms with d. Residues, ends and D or L forms follow the SMILES beside them. Bip = N[C@@H](Cc1ccc(-c2ccccc2)cc1)C(=O)O

As usually defined, the MIC is the lowest concentration found to suppress growth. High values mean a need for much substance, low ones inhibition by little substance. Take `CC(C)C[C@H](NC(=O)[C@H](CC(N)=O)NC(=O)[C@H](CCCNC(=N)N)NC(=O)[C@@H](CC(C)C)NC(=O)[C@H](Cc1ccc(-c2ccccc2)cc1)NC(=O)[C@H](CC(=O)O)NC(=O)[C@H](CCCCN)NC(=O)[C@@H](CC(C)C)NC(=O)[C@H](CCCNC(=N)N)NC(=O)[C@H](CCC(N)=O)NC(=O)[C@@H](NC(=O)[C@@H](CC(C)C)NC(=O)[C@H](CCCNC(=N)N)NC(=O)[C@H](CCCCN)NC(=O)[C@H](Cc1ccc(-c2ccccc2)cc1)NC(=O)CN)C(C)C)C(=O)N[C@H](C(N)=O)C(C)C` [Peptide 17BIPHE2] (H-G[Bip]KR[dL]VQR[dL]KD[Bip][dL]RNLV-NH2; N-terminus assumed): in data set [1], the “tHPLC (HPLC retention time)” value came to 10.753 min. The MIC against E. coli E423-17 is recorded as 4 µM (≈ 9.02 µg/mL); in the data set on P. aeruginosa E411-17 it was 8 µM (≈ 18 µg/mL). The Biofilm disruption in data set [2] (72 h preformed biofilms, peptide 64 μM, highest concentration tested) is recorded as ~ 70%. In data set [2] (biofilms established for 48 h, 24 h treatment), the “Disruption of 48 h biofilms” value was “dose-dependent biofilm disruption”. Also, in data set [2] (biofilms established in 24 h, 24 h treatment), the “Reduction of 24 h biofilms” value was “dose-dependent manner”.
